Reference: ChEMBL document CHEMBL5096210, “Discovery of Betulinic Acid Derivatives as Potent Intestinal Farnesoid X Receptor Antagonists to Ameliorate Nonalcoholic Steatohepatitis” (J Med Chem, 2022)
Activity calls are given as the source filed them. No cut-off for these calls is given here.

Experiments:
Mus musculus [1] = species: Mus musculus; assay: Anti-NASH activity in GAN diet-induced […] mouse assessed as reduction in Col3a1 level; type: functional, organism-based
Mus musculus [2] = assay: Anti-NASH activity in GAN diet-induced […] mouse assessed as reduction of ceramide level in serum administered orally for 12 weeks; type: functional, organism-based; details: route po
Mus musculus [3] = species: Mus musculus; assay: Anti-NASH activity in GAN diet-induced […] mouse assessed as reduction in A-sma mRNA expression; type: functional, organism-based
Mus musculus [4] = species: Mus musculus; assay: Anti-NASH activity in HFMCD diet-induced […] mouse assessed as decrease in collagen deposition by Sirius red staining based analysis; type: functional, organism-based
Mus musculus [5] = species: Mus musculus; assay: Anti-NASH activity in GAN diet-induced […] mouse assessed as increase in FXR protein by Western blot analysis; type: functional, organism-based
Mus musculus [6] = assay: Anti-NASH activity in GAN-induced […] mouse assessed as reduction in fat/lean index at 10 mg/kg, IG measured after 12 weeks; type: functional, organism-based
Liver [7] = assay: Anti-NASH activity in GAN diet-induced […] mouse liver assessed as reduction in hepatocyte fat by Sirius red staining based analysis; type: functional, cell-based
Mus musculus [8] = species: Mus musculus; assay: Anti-NASH activity in GAN diet-induced […] mouse assessed as reduction in Col1a1 level; type: functional, organism-based
Mus musculus [9] = assay: Anti-NASH activity in GAN-induced mouse assessed as increase in glucose tolerance at 10 mg/kg; type: functional, organism-based
Liver [10] = assay: Anti-NASH activity in GAN diet-induced […] mouse liver assessed as reduced NAFLD activity score; type: functional
[11] = biological target: T1, Bile acid receptor (Mus musculus) (UniProt Q60641); assay: In vivo antagonist activity against FXR in mouse assessed as reduction in Fgf15 level in presence of GW4064; type: functional
T1 sequence (whole entry): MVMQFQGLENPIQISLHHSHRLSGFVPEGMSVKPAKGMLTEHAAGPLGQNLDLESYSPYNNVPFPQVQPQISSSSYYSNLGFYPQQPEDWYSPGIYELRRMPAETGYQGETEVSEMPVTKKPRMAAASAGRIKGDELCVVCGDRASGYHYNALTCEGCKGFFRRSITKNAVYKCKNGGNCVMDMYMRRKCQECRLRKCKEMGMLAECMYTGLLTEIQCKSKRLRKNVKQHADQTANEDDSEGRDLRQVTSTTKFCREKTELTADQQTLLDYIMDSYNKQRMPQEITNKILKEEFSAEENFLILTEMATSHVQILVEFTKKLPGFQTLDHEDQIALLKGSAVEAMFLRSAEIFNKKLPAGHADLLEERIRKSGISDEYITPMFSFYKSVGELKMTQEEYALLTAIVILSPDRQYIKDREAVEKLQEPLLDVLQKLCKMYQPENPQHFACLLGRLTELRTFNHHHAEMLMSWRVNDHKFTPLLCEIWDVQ

Mus musculus [12] = assay: Anti-NASH activity in GAN diet-induced […] mouse assessed as reduction of glycosyl-ceramide level in serum administered orally for 12 weeks; type: functional, organism-based; details: route po
Mus musculus [13] = assay: Anti-NASH activity in GAN-induced mouse assessed as reduction in fasting glucose level at 10 mg/kg measured upto 120 mins; type: functional, organism-based
Liver [14] = assay: Anti-NASH activity in GAN diet-induced […] mouse liver assessed as reduction in hepatocyte collagen deposition by Sirius red staining based analysis; type: functional, cell-based
Mus musculus [15] = species: Mus musculus; assay: Anti-NASH activity in GAN diet-induced […] mouse assessed as reduction in ALT level; type: functional, organism-based
Liver [16] = assay: Anti-NASH activity in GAN diet-induced […] mouse liver assessed as reduction in hepatocyte fat by H and E staining based analysis; type: functional, cell-based
[17] = Drug metabolism in C57BL6 mouse liver assessed as ((1S,3aS,5aR,5bR,7aR,9R,11aR,11bR,13aR,13bR)-9-hydroxy-1-isopropyl-5a,5b,8,8,11a-pentamethylicosahydro-1H-cyclopenta[a]chrysene-3a-carbonyl)glycine formation at 10 mg/kg, po administered as single dose measured after 2 hrs; type: ADME, organism-based; details: in vivo
Mus musculus [18] = assay: Anti-NASH activity in GAN-induced […] mouse assessed as reduction in random blood glucose level at 10 mg/kg measured upto 120 mins; type: functional, organism-based
Liver [19] = assay: Anti-NASH activity in GAN diet-induced […] mouse liver assessed as reduction in macrosteatosis by Sirius red staining based analysis; type: functional
Mus musculus [20] = species: Mus musculus; assay: Anti-NASH activity in GAN diet-induced […] mouse assessed as suppression of O-sta expression; type: functional, organism-based

## CCCC(=O)O[C@@H]1CC[C@]2(C)[C@H]3CC[C@@H]4[C@H]5[C@H](C(C)C)CC[C@]5(C(=O)NCC(=O)O)CC[C@@]4(C)[C@]3(C)CC[C@H]2C1(C)C
Mus musculus [1]
  Activity: Active
Mus musculus [2]
  Activity: Active
Mus musculus [3]
  Activity: Active
Mus musculus [4]
  Activity: Active
Mus musculus [5]
  Activity: Active
Mus musculus [6]
  Activity: Active
Liver [7]
  Activity: Active
Mus musculus [8]
  Activity: Active
Mus musculus [9]
  Activity: Active
Liver [10]
  Activity: Active
[11]
  Activity: Active
Mus musculus [12]
  Activity: Active
Mus musculus [13]
  Activity: Active
Liver [14]
  Activity: Active
Mus musculus [15]
  Activity: Active
Liver [16]
  Activity: Active
[17]
  Drug metabolism: Metabolite_Detected
Mus musculus [18]
  Activity: Active
Liver [19]
  Activity: Active
Mus musculus [20]
  Activity: Active
